From patent US20250129078A1, “ERBB2 INHIBITORS” (Cogent Biosciences, Inc., priority 2023, published 2025)
pIC50: −log10 of the molar value.

Target: EGFR WT (Homo sapiens (Human), UniProt P00533)
Experiment: ErbB enzyme assay (CisBio HTRF-KinEASE-TK), EGFR WT
Format: biochemical
Settings: ATP at Km (25 μM), 1 h incubation
Outline: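 Compounds, serially diluted three-fold, were incubated with enzyme for 1 h at ambient temperature. Detection reagents were then added for a further hour, and the 655/620 nm HTRF ratio was normalised to uninhibited and pre-quenched controls. IC50 was fitted with a four-parameter logistic model.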

Sequence of EGFR WT (P00533 25-1210): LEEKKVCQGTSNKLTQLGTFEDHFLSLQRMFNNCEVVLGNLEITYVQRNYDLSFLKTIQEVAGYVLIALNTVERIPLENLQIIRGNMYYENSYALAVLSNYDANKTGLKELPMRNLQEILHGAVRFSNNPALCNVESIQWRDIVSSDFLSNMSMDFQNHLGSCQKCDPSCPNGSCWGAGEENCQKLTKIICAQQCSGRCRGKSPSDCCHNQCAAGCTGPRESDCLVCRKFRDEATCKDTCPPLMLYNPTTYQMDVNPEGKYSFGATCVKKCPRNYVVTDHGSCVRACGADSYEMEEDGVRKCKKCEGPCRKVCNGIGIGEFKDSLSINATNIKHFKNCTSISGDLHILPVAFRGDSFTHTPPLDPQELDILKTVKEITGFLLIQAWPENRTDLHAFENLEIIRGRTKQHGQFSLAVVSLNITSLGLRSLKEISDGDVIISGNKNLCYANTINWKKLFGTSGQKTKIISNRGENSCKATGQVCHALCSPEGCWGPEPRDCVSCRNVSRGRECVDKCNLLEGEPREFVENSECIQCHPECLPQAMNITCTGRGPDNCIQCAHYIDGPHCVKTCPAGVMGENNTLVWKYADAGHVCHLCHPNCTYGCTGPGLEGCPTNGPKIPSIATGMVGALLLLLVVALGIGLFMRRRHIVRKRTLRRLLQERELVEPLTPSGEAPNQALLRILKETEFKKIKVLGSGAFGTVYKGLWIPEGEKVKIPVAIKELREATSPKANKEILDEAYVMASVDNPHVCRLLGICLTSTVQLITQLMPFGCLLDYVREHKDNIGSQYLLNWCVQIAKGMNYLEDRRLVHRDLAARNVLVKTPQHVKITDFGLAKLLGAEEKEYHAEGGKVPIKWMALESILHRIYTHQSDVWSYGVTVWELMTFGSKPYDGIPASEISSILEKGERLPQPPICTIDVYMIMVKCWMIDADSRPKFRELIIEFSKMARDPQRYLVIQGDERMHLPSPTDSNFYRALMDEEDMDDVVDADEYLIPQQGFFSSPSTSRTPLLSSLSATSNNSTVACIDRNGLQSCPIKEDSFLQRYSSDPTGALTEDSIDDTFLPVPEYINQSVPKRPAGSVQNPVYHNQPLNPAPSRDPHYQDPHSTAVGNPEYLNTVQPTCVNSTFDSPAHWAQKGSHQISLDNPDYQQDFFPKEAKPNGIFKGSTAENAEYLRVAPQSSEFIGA

pIC50	SMILES
> 7.30	C=CC(=O)N1CCN(c2ncc3ncnc(Nc4ccc(Oc5cc(OC)c6c(c5)nnn6C)c(C)c4)c3n2)CC1 [Compound 113, 1-(4-(8-((4-((7-methoxy-1-methyl-1H-benzo[d][1,2,3]triazol-5-yl)oxy)-3-methylphenyl)amino)pyrimido[5,4-d]pyrimidin-2-yl)piperazin-1-yl)prop-2-en-1-one]
> 7.30	C=CC(=O)N1CCN(c2ccc3ncnc(Nc4ccc(Oc5ccc6c(c5)nnn6C)c(C)c4)c3n2)CC12CC2 [Compound 74, 1-(7-(4-((3-methyl-4-((1-methyl-1H-benzo[d][1,2,3]triazol-5-yl)oxy)phenyl)amino)pyrido[3,2-d]pyrimidin-6-yl)-4,7-diazaspiro[2.5]octan-4-yl)prop-2-en-1-one]
6.30 to 7.00	C=CC(=O)N1CC[C@@H](N(C)c2ncc3ncnc(Nc4ccc(Oc5ccc6c(c5)nnn6C)c(C)c4)c3n2)C1 [Compound 128, (R)-1-(3-(methyl(8-((3-methyl-4-((1-methyl-1H-benzo[d][1,2,3]triazol-5-yl)oxy)phenyl)amino)pyrimido[5,4-d]pyrimidin-2-yl)amino)pyrrolidin-1-yl)prop-2-en-1-one]
6.30 to 7.00	C=CC(=O)N1CCN(c2ncc3ncnc(Nc4ccc(Oc5ccc6c(c5)nnn6C)c(C)c4)c3n2)C[C@H]1CF (single isomer, unassigned) [Compound 198]
6.30 to 7.00	C=CC(=O)N1CCN(c2ccc3ncnc(Nc4ccc(Oc5cc(F)c6c(c5)nnn6C)c(C)c4F)c3n2)C[C@@H]1C1CC1 [Compound 292, (S)-1-(2-cyclopropyl-4-(4-((2-fluoro-4-((7-fluoro-1-methyl-1H-benzo[d][1,2,3]triazol-5-yl)oxy)-3-methylphenyl)amino)pyrido[3,2-d]pyrimidin-6-yl)piperazin-1-yl)prop-2-en-1-one]
> 7.30	C=CC(=O)N1CCN(c2ccc3ncnc(Nc4ccc(Oc5cnc6c(c5)ncn6C(F)F)c(C)c4)c3n2)C[C@H]1C [Compound 249, (R)-1-(4-(4-((4-((3-(difluoromethyl)-3H-imidazo[4,5-b]pyridin-6-yl)oxy)-3-methylphenyl)amino)pyrido[3,2-d]pyrimidin-6-yl)-2-methylpiperazin-1-yl)prop-2-en-1-one]
7.00 to 7.30	C=CC(=O)N1CCN(c2ncc3ncnc(Nc4ccc(Oc5cc(F)c6c(c5)ncn6C)c(C)c4)c3n2)C[C@H]1C [Compound 159, (R)-1-(4-(8-((4-((7-fluoro-1-methyl-1H-benzo[d]imidazol-5-yl)oxy)-3-methylphenyl)amino)pyrimido[5,4-d]pyrimidin-2-yl)-2-methylpiperazin-1-yl)prop-2-en-1-one]
6.30 to 7.00	Cc1cc(Nc2ncnc3ccc(N4CCN(C(=O)/C=C/C(F)F)[C@@H](C)C4)nc23)ccc1Oc1ccc2c(c1)nnn2C [Compound 369, (S,E)-4,4-difluoro-1-(2-methyl-4-(4-((3-methyl-4-((1-methyl-1H-benzo[d][1,2,3]triazol-5-yl)oxy)phenyl)amino)pyrido[3,2-d]pyrimidin-6-yl)piperazin-1-yl)but-2-en-1-one]
6.30 to 7.00	C=CC(=O)N[C@@H]1CCCN(c2ncc3ncnc(Nc4ccc(Oc5ccc6c(c5)nnn6C)c(C)c4)c3n2)C1 [Compound 125, (R)-N-(1-(8-((3-methyl-4-((1-methyl-1H-benzo[d][1,2,3]triazol-5-yl)oxy)phenyl)amino)pyrimido [5,4-d]pyrimidin-2-y1)piperidin-3-yl)acrylamide]
> 7.30	C=CC(=O)N1CC2CCC(C1)N2c1ncc2ncnc(Nc3ccc(Oc4ccc5c(c4)nnn5C)c(C)c3)c2n1 [Compound 46, 1-(8-(8-((3-methyl-4-((1-methyl-1H-benzo[d][1,2,3]triazol-5-yl)oxy)phenyl)amino)pyrimido[5,4-d]pyrimidin-2-yl)-3,8-diazabicyclo[3.2.1]octan-3-yl)prop-2-en-1-one]
7.00 to 7.30	C=CC(=O)N1CCN(c2ccc3ncnc(Nc4cc(C)c(Oc5ccn6ncnc6c5)cc4OC)c3n2)CC1 [Compound 371, 1-(4-(4-((4-([1,2,4]triazolo[1,5-a]pyridin-7-yloxy)-2-methoxy-5-methylphenyl)amino)pyrido[3,2-d]pyrimidin-6-yl)piperazin-1-yl)prop-2-en-1-one]
6.30 to 7.00	C=CC(=O)N[C@@H]1CCN(c2ccc3ncnc(Nc4ccc(Oc5ccc6c(c5)nnn6C)c(C)c4F)c3n2)CC1(C)C [Compound 344, (R)-N-(1-(4-((2-fluoro-3-methyl-4-((1-methyl-1H-benzo[d][1,2,3]triazol-5-yl)oxy)phenyl)amino)pyrido[3,2-d]pyrimidin-6-yl)-3,3-dimethylpiperidin-4-yl)acrylamide]
≤ 6.00	C=CC(=O)N1CCC2(CC1)CN(c1ncc3ncnc(Nc4ccc(Oc5ccc6c(c5)nnn6C)c(C)c4)c3n1)C2 [Compound 14, 1-(2-(8-((3-methyl-4-((1-methyl-1H-benzo[d][1,2,3]triazol-5-yl)oxy)phenyl)amino)pyrimido[5,4-d]pyrimidin-2-y1)-2,7-diazaspiro[3.5]nonan-7-yl)prop-2-en-1-one]
≤ 6.00	C=CC(=O)N[C@@H]1C[C@H](C)CN(c2ncc3ncnc(Nc4ccc(Oc5ccc6c(c5)nnn6C)c(C)c4F)c3n2)C1 (single isomer, unassigned) [Compound 203]
6.30 to 7.00	C=CC(=O)N1CCC(Oc2ncc3ncnc(Nc4ccc(Oc5ccc6c(c5)ncn6C)c(OC)c4)c3n2)CC1 [Compound 379, 1-(4-((8-((3-methoxy-4-((1-methyl-1H-benzo[d]imidazol-5-yl)oxy)phenyl)amino)pyrimido[5,4-d]pyrimidin-2-yl)oxy)piperidin-1-yl)prop-2-en-1-one]
6.30 to 7.00	C=CC(=O)N1CCN(c2ccc3ncnc(Nc4cc(C)c(Oc5cc(F)c6c(c5)ncn6C)cc4OC)c3n2)CC1 [Compound 372, 1-(4-(4-((4-((7-fluoro-1-methyl-1H-benzo[d]imidazol-5-yl)oxy)-2-methoxy-5-methylphenyl)amino)pyrido[3,2-d]pyrimidin-6-yl)piperazin-1-yl)prop-2-en-1-one]
6.30 to 7.00	C=CC(=O)N[C@H]1CN(c2ccc3ncnc(Nc4ccc(Oc5ccc6c(c5)nnn6C)c(C)c4F)c3n2)C[C@@H]1F [Compound 300, N-((3S,4S)-4-fluoro-1-(4-((2-fluoro-3-methyl-4-((1-methyl-1H-benzo[d][1,2,3]triazol-5-yl)oxy)phenyl)amino)pyrido[3,2-d]pyrimidin-6-yl)pyrrolidin-3-yl)acrylamide]
> 7.30	C=CC(=O)N1CC(Oc2ncc3ncnc(Nc4ccc(Oc5cc(F)c6c(c5)ncn6C)c(C)c4)c3n2)C1 [Compound 388, 1-(3-((8-((4-((7-fluoro-1-methyl-1H-benzo[d]imidazol-5-yl)oxy)-3-methylphenyl)amino)pyrimido[5,4-d]pyrimidin-2-yl)oxy)azetidin-1-yl)prop-2-en-1-one]
6.00 to 6.30	C=CC(=O)N1CCN(c2ncc3ncnc(Nc4ccc(Oc5cc6ncnn6cc5C)c(C)c4)c3n2)C[C@H]1C [Compound 182]
6.30 to 7.00	C=CC(=O)N1CCN(c2ccc3ncnc(Nc4ccc(Oc5ccc6c(c5)nnn6C)c(C)c4)c3n2)C[C@H]1C [Compound 73, (R)-1-(2-methyl-4-(4-((3-methyl-4-((1-methyl-1H-benzo[d][1,2,3]triazol-5-yl)oxy)phenyl)amino)pyrido[3,2-d]pyrimidin-6-yl)piperazin-1-yl)prop-2-en-1-one]
> 7.30	C=CC(=O)N1CC(N(C)c2ncc3ncnc(Nc4ccc(Oc5ccc6c(c5)nnn6C)c(C)c4F)c3n2)C1 [Compound 69, 1-(3-((8-((2-fluoro-3-methyl-4-((1-methyl-1H-benzo[d][1,2,3]triazol-5-yl)oxy)phenyl)amino)pyrimido[5,4-d]pyrimidin-2-yl)(methyl)amino)azetidin-1-yl)prop-2-en-1-one]
7.00 to 7.30	COC[C@@H]1CN(c2ccc3ncnc(Nc4ccc(Oc5ccc6c(c5)nnn6C)c(C)c4F)c3n2)CCN1C(=O)/C=C/CF [Compound 361, (S,E)-4-fluoro-1-(4-(4-((2-fluoro-3-methyl-4-((1-methyl-1H-benzo[d][1,2,3]triazol-5-yl)oxy)phenyl)amino)pyrido[3,2-d]pyrimidin-6-yl)-2-(methoxymethyl)piperazin-1-yl)but-2-en-1-one]
6.30 to 7.00	C=CC(=O)N1CCN(c2nc3c(Nc4ccc(Oc5ccc6c(c5)nnn6C)c(C)c4)ncnc3cc2F)CC1 [Compound 373, 1-(4-(7-fluoro-4-((3-methyl-4-((1-methyl-1H-benzo[d][1,2,3]triazol-5-yl)oxy)phenyl)amino)pyrido[3,2-d]pyrimidin-6-yl)piperazin-1-yl)prop-2-en-1-one]
6.30 to 7.00	C=CC(=O)N1CCN(c2ncc3ncnc(Nc4ccc(Oc5ccc6c(c5)nnn6C)c(C)c4)c3n2)C[C@@H]1COC [Compound 116, (R)-1-(2-(methoxymethyl)-4-(8-((3-methyl-4-((1-methyl-1H-benzo[d][1,2,3]triazol-5-yl)oxy)phenyl)amino)pyrimido[5,4-d]pyrimidin-2-y1)piperazin-1-yl)prop-2-en-1-one]
6.30 to 7.00	C=CC(=O)N1CCN(c2ncc3ncnc(Nc4ccc(Oc5cc6nnn(C)c6c(C)c5F)c(C)c4)c3n2)CC1 [Compound 141, 1-(4-(8-((4-((6-fluoro-1,7-dimethyl-1H-benzo[d][1,2,3]triazol-5-yl)oxy)-3-methylphenyl)amino)pyrimido[5,4-d]pyrimidin-2-yl)piperazin-1-yl)prop-2-en-1-one]
> 7.30	C=CC(=O)N1CCC(Oc2ncc3ncnc(Nc4ccc(Oc5ccc6c(c5)ncn6C)c(C)c4)c3n2)C(F)(F)C1 (stereo not drawn) [Compound 393, 1-(3,3-difluoro-4-((8-((3-methyl-4-((1-methyl-1H-benzo[d]imidazol-5-yl)oxy)phenyl)amino)pyrimido[5,4-d]pyrimidin-2-y1)oxy)piperidin-1-yl)prop-2-en-1-one]
> 7.30	C=CC(=O)N[C@]1(C)CCN(c2ncc3ncnc(Nc4ccc(Oc5ccc6c(c5)nnn6C)c(C)c4)c3n2)C1 [Compound 144, (R)-N-(3-methyl-1-(8-((3-methyl-4-((1-methyl-1H-benzo[d][1,2,3]triazol-5-yl)oxy)phenyl)amino)pyrimido[5,4-d]pyrimidin-2-yl)pyrrolidin-3-yl)acrylamide]
